Target: T1, KATP channels (Homo sapiens, UniProt O60706+Q14654)
T1 construct: TE671 human medulloblastoma cells were obtained from ATCC; host or cells: TE671 human medulloblastoma cells
Assay: Potassium Channel Assay (FLIPR membrane potential dye, TE671 cells)
Assay type: cell-based
Details: TE671 human medulloblastoma cells, room temperature, fluorescence change monitored for 3 minutes
Experimental: TE671 human medulloblastoma cells were obtained from ATCC and grown in Dulbecco's modified Eagle's medium (DMEM) supplemented with 10% fetal bovine serum, 100 U/ml penicillin and 100 U/ml streptomycine.
The day before testing, the cells were plated in black 96-well plates at 50K/well. On the day of testing, the growth media was removed, then 100 μl of FLIPR buffer (20 mM HEPES, 120 mM NaCl, 2 mM KCl, 2 mM CaCl2, 1 mM MgCl2, 5 mM Glucose) and 100 μl of Membrane Potential Assay Dye (Molecular Devices) dissolved in FLIPR buffer were added to each well. The cells were incubated at room temperature for 15 to 30 min.
The effect of test compounds on KATP channels were evaluated on a fluorometric imaging plate reader (FLIPR, Molecular Devices) at room temperature. After a baseline period, 50 μl of 5× stock solution of test compound prepared in FLIPR buffer was added and fluorescence change was monitored for 3 minutes. After this reading, glyburide, a KATP channel blocker, was added to a final concentration of 5 μM to check the specificity of the test compound as a KATP channel opener. Hyperpolarization resulting from KATP channel opening was observed as a decrease in fluorescence intensity.
Representative compounds of the present invention were tested according to the procedure described above, with results as listed in Table 7 below.

T1 sequence (Q14654 whole entry): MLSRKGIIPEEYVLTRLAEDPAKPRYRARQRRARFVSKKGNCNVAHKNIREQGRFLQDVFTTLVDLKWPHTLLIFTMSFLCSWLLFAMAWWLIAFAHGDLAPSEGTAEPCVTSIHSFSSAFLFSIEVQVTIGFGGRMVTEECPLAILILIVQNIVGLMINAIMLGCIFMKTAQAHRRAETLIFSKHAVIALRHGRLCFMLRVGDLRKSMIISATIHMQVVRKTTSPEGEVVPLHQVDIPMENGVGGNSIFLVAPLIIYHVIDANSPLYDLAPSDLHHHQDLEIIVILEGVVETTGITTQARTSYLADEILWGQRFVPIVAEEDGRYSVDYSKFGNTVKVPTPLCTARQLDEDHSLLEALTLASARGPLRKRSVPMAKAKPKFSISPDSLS
T1 sequence (O60706 1-1549 isoform O60706-2): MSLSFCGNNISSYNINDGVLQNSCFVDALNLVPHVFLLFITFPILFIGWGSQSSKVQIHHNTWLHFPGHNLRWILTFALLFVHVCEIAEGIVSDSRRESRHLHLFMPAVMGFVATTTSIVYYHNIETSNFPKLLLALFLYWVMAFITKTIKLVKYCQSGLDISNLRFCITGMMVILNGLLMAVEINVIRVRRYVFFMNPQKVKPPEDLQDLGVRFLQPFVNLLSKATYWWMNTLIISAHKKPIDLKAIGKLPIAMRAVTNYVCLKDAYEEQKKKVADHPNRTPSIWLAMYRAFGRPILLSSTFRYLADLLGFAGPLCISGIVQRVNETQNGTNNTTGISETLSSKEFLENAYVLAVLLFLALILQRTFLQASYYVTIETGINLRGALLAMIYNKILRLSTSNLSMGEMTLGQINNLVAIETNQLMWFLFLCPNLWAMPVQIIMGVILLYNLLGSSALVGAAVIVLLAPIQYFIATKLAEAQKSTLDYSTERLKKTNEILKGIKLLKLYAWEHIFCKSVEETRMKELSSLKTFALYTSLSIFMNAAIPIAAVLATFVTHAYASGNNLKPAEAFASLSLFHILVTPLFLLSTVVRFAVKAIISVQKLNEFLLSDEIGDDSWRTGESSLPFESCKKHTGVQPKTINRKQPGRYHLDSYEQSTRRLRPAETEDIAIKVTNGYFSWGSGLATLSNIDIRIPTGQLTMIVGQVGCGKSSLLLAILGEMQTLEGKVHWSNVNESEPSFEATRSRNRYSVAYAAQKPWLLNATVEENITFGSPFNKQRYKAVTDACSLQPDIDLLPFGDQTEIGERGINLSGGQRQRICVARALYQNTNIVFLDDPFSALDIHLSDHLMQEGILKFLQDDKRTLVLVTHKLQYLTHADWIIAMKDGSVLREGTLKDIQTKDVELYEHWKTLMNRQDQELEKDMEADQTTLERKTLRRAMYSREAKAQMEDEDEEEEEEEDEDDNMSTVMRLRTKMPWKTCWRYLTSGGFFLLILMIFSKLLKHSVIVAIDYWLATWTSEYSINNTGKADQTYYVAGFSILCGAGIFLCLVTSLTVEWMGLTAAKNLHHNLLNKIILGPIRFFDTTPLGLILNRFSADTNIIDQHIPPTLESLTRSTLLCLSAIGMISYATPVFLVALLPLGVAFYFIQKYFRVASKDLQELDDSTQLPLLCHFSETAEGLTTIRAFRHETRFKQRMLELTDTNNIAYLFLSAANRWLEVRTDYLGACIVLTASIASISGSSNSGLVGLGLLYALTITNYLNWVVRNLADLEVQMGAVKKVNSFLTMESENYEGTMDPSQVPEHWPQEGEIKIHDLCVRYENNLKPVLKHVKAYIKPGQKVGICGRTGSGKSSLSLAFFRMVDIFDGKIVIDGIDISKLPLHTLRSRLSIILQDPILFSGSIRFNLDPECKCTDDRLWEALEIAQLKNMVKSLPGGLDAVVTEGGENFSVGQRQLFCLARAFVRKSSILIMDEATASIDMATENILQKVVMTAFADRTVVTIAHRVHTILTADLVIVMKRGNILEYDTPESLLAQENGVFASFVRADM

SMILES	% Stimulation [%]	EC50 [µM]
CCOC(=O)c1cnc2cc(C(F)(F)F)ccc2c1-c1cccc(C#N)c1 [Compound 1, 4-(3-Cyano-phenyl)-7-trifluoromethyl-quinoline-3-carboxylic acid ethyl ester]	36	> 30
CCOC(=O)c1cnc2cc(C(F)(F)F)ccc2c1OS(=O)(=O)C(F)(F)F [Compound 15, 4-Trifluoromethanesulfonyloxy-7-trifluoromethyl-quinoline-3-carboxylic acid ethyl ester]		6.27
CCOC(=O)c1cnc2cc(C(F)(F)F)ccc2c1-c1ccc(-c2ccccc2)cc1 [Compound 5, 4-Biphenyl-4-yl-7-trifluoromethyl-quinoline-3-carboxylic acid ethyl ester]	33	> 30
CCOC(=O)c1cnc2cc(C(F)(F)F)ccc2c1-c1cccc(C=O)c1 [Compound 11, 4-(3-Formyl-phenyl)-7-trifluoromethyl-quinoline-3-carboxylic acid ethyl ester]	2	> 30
CCOC(=O)c1cnc2cc(C(F)(F)F)ccc2c1-c1ccc(C)c(C)c1 [Compound 13, 4-(3,4-Dimethyl-phenyl)-7-trifluoromethyl-quinoline-3-carboxylic acid ethyl ester]	0	> 30
CCOC(=O)c1cnc2cc(C(F)(F)F)ccc2c1-c1cc(C)cc(OC)c1 [Compound 2, 4-(3-Methoxy-5-methyl-phenyl)-7-trifluoromethyl-quinoline-3-carboxylic acid ethyl ester]	23	> 30
CCOC(=O)c1cnc2cc(C(F)(F)F)ccc2c1-c1cc(C(F)(F)F)ccc1F [Compound 8, 4-(2-Fluoro-5-trifluoromethyl-phenyl)-7-trifluoromethyl-quinoline-3-carboxylic acid ethyl ester]	31	> 30
Cc1ccc(C(O)c2cnccc2-c2cccc(C#N)c2)cc1F (stereo not shown) [Compound 22, 3-{3-[(3-Fluoro-4-methyl-phenyl)-hydroxy-methyl]-pyridin-4-yl}-benzonitrile]		15.1
CCOC(=O)c1ccc(-c2c(C(=O)OCC)cnc3cc(C(F)(F)F)ccc23)cc1 [Compound 4, 4-(4-Ethoxycarbonyl-phenyl)-7-trifluoromethyl-quinoline-3-carboxylic acid ethyl ester]	38	> 30

Continued, values first:

% Stimulation [%]	EC50 [µM]	SMILES
24	> 30	N#Cc1cccc(C2OC(O)c3cnccc32)c1 (stereo not shown) [Compound 55, 3-(3-Hydroxy-1,3-dihydro-furor[3,4-c]pyridin-1-yl)-benzonitrile]
30	> 30	COc1ccc(C=O)cc1-c1ccncc1C=O [Compound 53, 4-(5-Formyl-2-methoxy-phenyl)-pyridine-3-carbaldehyde]
	10.2	COc1ccccc1C(O)c1cnccc1-c1cccc(C#N)c1 (stereo not shown) [Compound 28, 3-{3-[Hydroxy-(2-methoxy-phenyl)-methyl]-pyridin-4-yl}-benzonitrile]
14	> 30	COc1ccc(CO)cc1-c1ccncc1CO [Compound 58]
	17.4	CN(C)c1ccc(C(O)c2cnccc2C(=O)c2ccccc2)cc1 (stereo not shown) [Compound 44, {3-[(4-Dimethylamino-phenyl)-hydroxy-methyl]-pyridin-4-yl}-phenyl-methanone]
33	> 30	OCc1cnccc1C(O)c1ccccc1 (stereo not shown) [Compound 56, (3-Hydroxymethyl-pyridin-4-yl)-phenyl-methanol]
	14.3	N#Cc1cccc(C(=O)c2ccncc2C(O)c2ccccc2)c1 (stereo not shown) [Compound 48, 3-[3-(Hydroxy-phenyl-methyl)-pyridine-4-carbonyl]-benzonitrile]
	26.8	CC(O)c1cnccc1C(=O)c1ccccc1 (stereo not shown) [Compound 59, [3-(1-Hydroxy-ethyl)-pyridin-4-yl]-phenyl-methanone]
	10.2	N#Cc1cccc(-c2ccncc2C(O)c2ccc(Cl)cc2)c1 (stereo not shown) [Compound 26, 3-{3-[(4-Chloro-phenyl)-hydroxy-methyl]-pyridin-4-yl}-benzonitrile]
	11.6	COc1ccc(C(O)c2cnccc2C(=O)c2ccccc2)cc1F (stereo not shown) [Compound 45, {3-[(3-Fluoro-4-methoxy-phenyl)-hydroxy-methyl]-pyridin-4-yl}-phenyl-methanone]
	17.4	O=C(c1ccccc1)c1ccncc1C(O)c1ccccc1 (stereo not shown) [Compound 43, [3-(Hydroxy-phenyl-methyl)-pyridin-4-yl]-phenyl-methanone]

Reference: patent US7671065B2, “Pyridine derivatives as potassium ion channel openers” (Janssen Pharmaceutica N.V., priority 2005, dated 2010)
